# Experimental data: patent publication US9018248B2, “Fatty acid derivatives of catechins and methods of their use” (Genesis Group Inc., priority 2010, dated 2015)
# Where two headings read alike, the source gives them in different places.
# What was measured:
# [1] = system: LPS-induced NO production; test: LPS-induced NO production in RAW 264.7 macrophage (Griess reaction); type: cell-based, murine; conditions: RAW 264.7 macrophage, nitrite by Griess reaction, read-out: IC50, inhibition against LPS-induced NO production
# Protocol: RAW 264.7 cells were cultured in Rosewell Park Memorial Institute (RPMI) 1640 media (without phenol red) supplemented with 10% endotoxin-free, heat-inactivated fetal calf serum, 100 units/ml penicillin, and 100 μg/ml streptomycin. When the cells reached a density of 2-3×10^6 cells/ml, they were activated by incubation in a medium containing E. coli lipopolysaccharide (LPS) (100 ng/ml). Various concentrations of compounds of the disclosure in dimethyl sulphoxide (DMSO) were added together with LPS. Cells were treated with 0.05% DMSO as the vehicle control. The stimulated murine macrophage cell line RAW 264.7 cells were washed with PBS and lysed in an ice-cold RIPA buffer (Tris-HCl, pH 7.2, 25 mM; 0.1% SDS; 1% Triton X-100; 1% sodium deoxycholate; 0.15 M NaCl; 1 mM EDTA) containing 1 mM phenylmethyl sulphonyl fluoride (PMSF), 10 μg/mL aprotinin, 1 mM sodium ortho-vanadate, and 5 μg/mL leupeptin. Protein concentrations were determined using the BCA method (Pierce, Rockford, Ill.). The samples (50 μg of protein) were mixed with 5-fold of sample buffer containing 0.3 M Tris-HCl (pH 6.8), 25% 2-mercaptoethanol, 12% sodium dodecyl sulphate (SDS), 25 mM EDTA, 20% glycerol, and 0.1% bromophenol blue. The mixtures were boiled at 100° C. for 5 min, prerun on a stacking gel, and then resolved by 12% SDS-polyacrylamide minigels at a constant current of 20 mA. For western blot, proteins on the gel were electro-transferred onto a […] immobile polyvinylidene fluoride (PVDF) membrane with a transfer buffer composed of 25 mM Tris-HCl (pH 8.9), 192 mM glycine, and 20% methanol, as described by Pan et al. (2000). Membrane blocking was then carried out at room temperature for 1 h in blocking solution (20 mM Tris-HCl pH 7.4, 125 mM NaCl, 0.2% Tween 20, 1% bovine serum albumin, and 0.1% sodium azide). The membrane was incubated with the primary antibody of iNOS and COX-2 at 4° C. overnight. The membranes were subsequently probed with selected IgG antibody conjugated to horseradish peroxidase (Transduction Laboratories, Lexington, Ky.) and visualized using enhanced chemiluminescence (ECL, Amersham). The densities of the bands were quantitated using a densitometer (AlphaImager 2200 System). All the membranes were stripped and reprobed for β-actin (Sigma Chemical Co., St. Louis, Mo.) as loading control. […] The inhibition of iNOS induction by compounds of the disclosure may be due to down regulation of iNOS gene expression. […] (7b) Inhibition Against LPS-Induced NO Production in RAW 264.7 Macrophage The LPS-induced NO production by the macrophages was determined as nitrite concentration in the culture medium according to the Griess reaction. […] The absorbance of the mixture at 550 nm was measured with an ELISA plate reader (Dynatech MR-7000; Dynatech Laboratories, Chantilly, Va., USA). […]
# supercoiled pBR322 DNA = test: Hydroxyl radical-induced DNA scission; conditions: 1 μM test compounds, H2O2/Fe2SO4, 37° C., 1 hour, FIG. 2
# Protocol: For hydroxyl radical-induced DNA oxidation, 2 μL of test compounds dissolved in ethanol were added into an Eppendorf tube and the solvent was evaporated under a nitrogen stream. To the tube 2 μL of distilled water were added, followed by thorough vortexing for 1 min. The following reagents were then added to the tube in the order as stated: 2 μL of PBS (pH7.4), 2 μL of supercoiled pBR322 DNA, 2 μL of H2O2 and 2 μL of Fe2SO4. The mixture (10 μL) containing 1 μM test compounds, 0.1M PBS, 10 μg/ml DNA, 0.2 mM H2O2 and 0.1 mM Fe2SO4 (final concentration/assay) was incubated at 37° C. for 1 hour.
# After incubation, 1 μL of loading dye (0.25% bromophenol blue/0.25% xylene cyanol/50% glycerol) was added, and the whole mixture was loaded onto an agarose gel. […] The images were analyzed using AlphaEase stand-alone software (Alpha Innotech Co., San Leandro, Calif.) and the intensity or density of the bands (obtained from densitometer) was used as the indicator of concentration of the native (supercoiled) and nicked DNA fractions. Antioxidant activity was calculated as DNA retention according to the following equation: % retention=100×(native DNAsample/native DNAblank) where, DNAsample and DNAblank are normalized concentrations of native supercoiled DNA in total DNA for sample groups and blank, respectively. […]
# iNOS = iNOS protein expression in LPS-stimulated RAW 264.7 macrophages (western blot); type: cell-based, murine; conditions: LPS 100 ng/ml, RAW 264.7, western blot; 20 and 40 μM for 1a-1c
# Protocol: RAW 264.7 cells were cultured in Rosewell Park Memorial Institute (RPMI) 1640 media (without phenol red) supplemented with 10% endotoxin-free, heat-inactivated fetal calf serum, 100 units/ml penicillin, and 100 μg/ml streptomycin. When the cells reached a density of 2-3×10^6 cells/ml, they were activated by incubation in a medium containing E. coli lipopolysaccharide (LPS) (100 ng/ml). Various concentrations of compounds of the disclosure in dimethyl sulphoxide (DMSO) were added together with LPS. Cells were treated with 0.05% DMSO as the vehicle control. The stimulated murine macrophage cell line RAW 264.7 cells were washed with PBS and lysed in an ice-cold RIPA buffer (Tris-HCl, pH 7.2, 25 mM; 0.1% SDS; 1% Triton X-100; 1% sodium deoxycholate; 0.15 M NaCl; 1 mM EDTA) containing 1 mM phenylmethyl sulphonyl fluoride (PMSF), 10 μg/mL aprotinin, 1 mM sodium ortho-vanadate, and 5 μg/mL leupeptin. Protein concentrations were determined using the BCA method (Pierce, Rockford, Ill.). The samples (50 μg of protein) were mixed with 5-fold of sample buffer containing 0.3 M Tris-HCl (pH 6.8), 25% 2-mercaptoethanol, 12% sodium dodecyl sulphate (SDS), 25 mM EDTA, 20% glycerol, and 0.1% bromophenol blue. The mixtures were boiled at 100° C. for 5 min, prerun on a stacking gel, and then resolved by 12% SDS-polyacrylamide minigels at a constant current of 20 mA. For western blot, proteins on the gel were electro-transferred onto a […] immobile polyvinylidene fluoride (PVDF) membrane with a transfer buffer composed of 25 mM Tris-HCl (pH 8.9), 192 mM glycine, and 20% methanol, as described by Pan et al. (2000). […] The densities of the bands were quantitated using a densitometer (AlphaImager 2200 System). […] (7b) Inhibition Against LPS-Induced NO Production in RAW 264.7 Macrophage The LPS-induced NO production by the macrophages was determined as nitrite concentration in the culture medium according to the Griess reaction. […] The absorbance of the mixture at 550 nm was measured with an ELISA plate reader (Dynatech MR-7000; Dynatech Laboratories, Chantilly, Va., USA). […]
Structure (SMILES),"IC50 ([1]; Mus musculus, RAW264.7)",Antioxidant activity against hydroxyl radical-induced DNA scission (supercoiled pBR322 DNA),Inhibition of iNOS protein expression (iNOS),IC50 [1]
"CCCCCCCCCCCCCCCCCC(=O)Oc1cc(C(=O)OC2Cc3c(O)cc(O)cc3OC2c2cc(OC(=O)CCCCCCCCCCCCCCCCC)c(O)c(OC(=O)CCCCCCCCCCCCCCCCC)c2)cc(OC(=O)CCCCCCCCCCCCCCCCC)c1O (stereo not drawn) [Compound 1a, EGCG stearate]",40.7 µM,,,
CCC=CCC=CCC=CCC=CCC=CCCCC(=O)Oc1cc(C(=O)OC2Cc3c(O)cc(O)cc3OC2c2cc(OC(=O)CCCC=CCC=CCC=CCC=CCC=CCC)c(O)c(OC(=O)CCCC=CCC=CCC=CCC=CCC=CCC)c2)cc(OC(=O)CCCC=CCC=CCC=CCC=CCC=CCC)c1O (stereo not drawn) [Compound 1b],,the most potent antioxidant among all,strong dose-dependent relationship in suppressing the cytokine production,
CCC=CCC=CCC=CCC=CCC=CCC=CCCC(=O)Oc1cc(C(=O)OC2Cc3c(O)cc(O)cc3OC2c2cc(OC(=O)CCC=CCC=CCC=CCC=CCC=CCC=CCC)c(O)c(OC(=O)CCC=CCC=CCC=CCC=CCC=CCC=CCC)c2)cc(OC(=O)CCC=CCC=CCC=CCC=CCC=CCC=CCC)c1O (stereo not drawn) [Compound 1c],,,the most potent in inhibiting the induction of iNOS expression,
"O=C(O[C@@H]1Cc2c(O)cc(O)cc2O[C@@H]1c1cc(O)c(O)c(O)c1)c1cc(O)c(O)c(O)c1 [EGCG, Epigallocatechin gallate, reference compound]",103 µM,,,103 µM
